Holding throughout (experiment): growth of human tumour cells (NCI), 48 h
The test system of test [1] is 786-0 renal.
Test [2] has as its system CAKI-1 renal.
Test [3] has as its system HOP-62 NSCLC.
Test [4] concerns NCI/ADR-RES ovarian.
In test [5] the test system is OVCAR-5 ovarian.
Test [6] has as its system RPMI-8226 leukemia.
Test [7] has as its system SF-539 CNS.
Test [8] concerns SK-MEL-5 melanoma.
The subject of test [9] is SK-OV-3 ovarian.
In test [10] the test system is SR leukemia.

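Each compound was tested at five concentrations against cells in 96-well plates for 48 hours. GI50 is the concentration that inhibits growth by half. TGI denotes the concentration required for complete inhibition of growth.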

For the compound `CC(=O)ON1CCCC(P(=O)(OCOC(=O)C(C)(C)C)OCOC(=O)C(C)(C)C)C1=O` (stereo not given), the GI50 in test [1] was 0.331 µM; in test [2], 0.712 µM; in test [3], 0.923 µM; in [4], 0.531 µM; in test [5], 1.94 µM; in test [6], 0.407 µM. The GI50 was 1.11 µM in test [7], 0.773 µM in test [8], 0.923 µM in test [9] and 0.309 µM in [10]. The TGI is more than 23.4 µM in test [1]; 20.4 µM in test [2]; 7.53 µM in test [3]; 4.21 µM in test [4]; 20.3 µM in test [5]; 1.89 µM in test [6]. Further, the TGI came to 5.8 µM in [7], 3.04 µM in test [8], 13.3 µM in test [9] and 2.34 µM in test [10].

In the case of `CSC1=Nc2c(c(C)c(C)n2COC(CO)CO)C2=NC(=O)CN12`, the GI50 in test [1], in test [2], in test [3], in test [4], in [5] and in test [6] was more than 100 µM each time. Moreover, the GI50 in test [7], in test [8], in [9] and in test [10] was more than 100 µM each time. The TGI in test [1], in test [2], in test [3], in test [4], in test [5] and in [6] was more than 100 µM throughout. For the same compound, the TGI in [7], in [8], in [9] and in test [10] was more than 100 µM each time.

As to `O=C(OCc1ccc2c(Br)cc(Br)c(O)c2n1)c1cc2ccccc2[nH]1`, the GI50 in test [1] was 0.851 µM; in [2] it was 0.505 µM; in test [3] it was 1.34 µM; in [4] it was 1.63 µM; in test [5] it was 1.24 µM; in test [6], 0.357 µM. In addition, the GI50 in test [7] is 0.962 µM; in test [8] it was 1.61 µM; in [9] it was 6.03 µM; in test [10], 0.43 µM. The TGI in [1] was 2.22 µM; in [2], 1.86 µM; in test [3] it was 3.47 µM; in test [4] it was 7.59 µM; in test [5] it was 2.68 µM; in test [6], 1.94 µM. For the same compound, the TGI amounted to 2.17 µM in [7], 2.99 µM in [8], 18.6 µM in [9] and 4.22 µM in [10].

As to `O=C1Oc2ccccc2C(=O)/C1=C1/C=C(c2ccccc2)SS1`, the TGI in test [1], in test [2], in [3], in test [4], in [5] and in test [6] was more than 100 µM each time. In addition, the TGI was more than 100 µM in test [7], more than 100 µM in test [8], more than 100 µM in test [9] and 61.3 µM in test [10].

For the compound `O=C(/C=C/C12c3ccccc3C(c3ccccc31)C1C(=O)NC(=O)C12)c1ccccn1` (stereo not given), the GI50 in test [1] is 1.74 µM; in [2], 1.66 µM; in test [3] it was 1.75 µM; in test [4] it was 2.81 µM; in test [5], 2.04 µM; in test [6] it was 1.22 µM. Further, the GI50 in test [7] is 2.04 µM; in test [8], 1.7 µM; in [9], 2.4 µM; in test [10], 0.782 µM. Besides, the TGI is 4 µM in [1]; 4.38 µM in [2]; 4.15 µM in test [3]; 10.1 µM in [4]; 4.54 µM in test [5]; 4.3 µM in test [6]. Moreover, the TGI in test [7] was found to be 4.65 µM; in [8], 3.2 µM; in [9], 8.31 µM; in test [10] it was 7.31 µM.

In the case of `Cc1ccc(O)cc1Nc1ccnc2ccc(S(C)(=O)=O)cc12`, the GI50 in [1] is 1.87 µM; in test [2], 0.74 µM; in test [3], 2.35 µM; in test [4], 15.9 µM; in test [5], 1.41 µM; in test [6], more than 25 µM. Besides, the GI50 in test [7] was 1.08 µM; in test [8], 10.4 µM; in [9], 3.22 µM; in test [10], more than 25 µM. The TGI in test [1] is more than 25 µM; in [2], 5.12 µM; in test [3] it was more than 25 µM; in [4] it was more than 25 µM; in test [5], 14.5 µM; in [6], more than 25 µM. In addition, the TGI was 7.62 µM in test [7], more than 25 µM in test [8], more than 25 µM in test [9] and more than 25 µM in test [10].

For `O=C1C=C[C@H](O)[C@@]2(CO)O[C@@H]12`, the GI50 in [1] was 16.4 µM; in test [2], 3.04 µM; in test [3], 23.7 µM; in test [4], 16.6 µM; in [5] it was 15.6 µM; in test [6], 3.38 µM. For the same compound, the GI50 in test [7] was 11.6 µM; in [8], 16.1 µM; in test [9] it was 28.4 µM; in [10], 4.64 µM. The TGI in [1] was 30 µM; in test [2], 19.3 µM; in test [3] it was more than 55.2 µM; in [4], 45.8 µM; in test [5], 29 µM; in [6], 12 µM. The TGI in test [7] is 25.6 µM; in [8], 29.7 µM; in test [9], more than 96.1 µM; in test [10], more than 100 µM.

For the compound `CCN(C)c1nc(N(C)CC)c2nc(N(C)CC)nc(N(C)CC)c2n1`, the TGI in [1], in [2], in [3], in test [4], in [5] and in test [6] was more than 100 µM in each case. Further, the TGI in test [7], in [8], in test [9] and in test [10] was more than 100 µM in each case.

The values above are taken from PubChem BioAssay (NCI).
